Measured values from patent US4632828A, “Pharmaceutical composition” (priority 1984, dated 1986).

Assays:
[1] = Differential Scanning Calorimetry of MAP/swellable polymer systems; type: physicochemical; settings: DSC; for % Residual of Original Heat of Fusion: relative to pure crystalline MAP
From the text: Alternatively, the grinding of the MAP-swellable polymer mixture can be stopped at any time the original crystalline form of MAP has been transformed into another, more energetic form.

[2] = Solubility (saturation concentration) of MAP/swellable polymer systems; type: physicochemical; settings: pH 5.5 phosphate buffer, 37° C.
Procedure: The flasks were placed in a shaking thermostated apparatus and aliquots of sample solutions were taken by filtering through a Millipore membrane. The concentration of MAP in the filtered aliquot was determined both by spectrophotometry (SP8-100, Pye Unicam), after dilution with methanol, and by HPLC (column: Spherisorb S30DS2, Phase Sep.; mobile phase: acetonitrile/water 70/30 v/v; flow rate: 1 ml/min; U.V. detection, λ=242 nm), after dilution with acetonitrile.

Heat of Fusion [1] | Melting Point [1] | % Residual of Original Heat of Fusion [1] | Solubility ([2]; 5 min) | Solubility ([2]; 15 min) | Solubility ([2]; 1 hr) | Solubility ([2]; 6 hrs) | Melting Point ([1]; listed as pure MAP) | Compound
82.798 J/g | 205.3 °C | 94.1% |  |  |  |  |  | CC(=O)O[C@]1(C(C)=O)CC[C@H]2[C@@H]3C[C@H](C)C4=CC(=O)CC[C@]4(C)[C@H]3CC[C@@]21C [Micronized pure MAP, 6α-methyl, 17α-hydroxy-progesterone acetate]
88.003 J/g | 205-206 °C | 100% | < 0.04 µg/mL | 0.32 µg/mL | 0.68 µg/mL | 1.00 µg/mL | 205.6 °C | CC(=O)O[C@]1(C(C)=O)CC[C@H]2[C@@H]3C[C@H](C)C4=CC(=O)CC[C@]4(C)[C@H]3CC[C@@]21C [Pure crystalline MAP, 6α-methyl, 17α-hydroxy-progesterone acetate]
